Results as given in patent US20260199371A1, “COORDINATION COMPOUND, COMPOSITIONS, AND USES THEREOF FOR TREATING CANCERS” (HUEIYUAN BIOTECH LLC, priority 2023, published 2026).

Experiments:
[1] = tested on: LoVo-OXAR cells tumor xenograft
Procedure: (§1) Six-week-old male NU/NU mice were purchased from Bio LASCO Taiwan Co., Ltd (Taipei, Taiwan) and randomly assigned into four groups (Groups 1 to 4), each containing three mice. […] Tumor volume and mice body weight were measured every three days. […] All mice were sacrificed on day 21, and the tumors were excised and weighed.
(§2) Moreover, the LoVo-parental and LoVo-OXAR tumor tissues were collected and subject to TUNEL assay.

[2] = tested on: LoVo-parental cells tumor xenograft
Procedure: as §1, §2

[3] = tested on: PANC-1 cells tumor xenograft; assay: Subcutaneous PANC-1 tumor xenograft in C.B17/SCID mice; settings: for Change in body weight / TGI (%): oral; for TGI (%): 14 days, read 14 days after the treatment period
[4] = tested on: ER stress markers in LoVo-parental cells; settings: 500 μg/ml, 24 hours
Procedure: (§3) Western blot analysis was conducted using primary antibodies against protein kinase RNA-like endoplasmic reticulum kinase (PERK), phosphorylated PERK (p-PERK), alpha subunit of eukaryotic translation initiation factor 2 (eIF2α), phosphorylated eIF2α (p-eIF2α), activating transcription factor 4 (ATF4), proliferating cell nuclear antigen (PCNA), glyceraldehyde 3-phosphate dehydrogenase (GAPDH), and caspase 3 (San-ta Cruz Biotechnology Inc. Santa Cruz, California, USA). GAPDH was used as an internal control for the normalization of protein expression. […] Phosphorylated eIF2α has been known to inhibit the synthesis of various proteins participating in tumorigenesis.

[5] = tested on: ER stress markers in LoVo-OXAR cells; settings: 2000 μg/ml, 24 hours
Procedure: as §3

[6] = Group 5: 150 mg/kg, twice a day

In the case of `CC(=O)[O-].CC(=O)[O-].CC(=O)[O-].CC(=O)[O-].CC(=O)[O-].CC(=O)[O-].O.O.O.O.O=[N+]([O-])[O-].[Cr+3].[Fe+3].[Fe+3].[OH-].[OH-]` [compound (II)], the “apoptosis in tumors (TUNEL)” value ([1]; LoVo-OXAR tumors) is reported as “induced significantly higher apoptosis”, the “health of mice after treatment” value ([1]; LoVo-OXAR xenograft, 100 mg/kg orally every three days) is reported as “healthy” and the tumor growth ([1]; LoVo-OXAR xenograft, 100 mg/kg orally every three days, about three weeks) is reported as “significantly reduced the tumor growth”. The “body weight of the mice” value ([1]; LoVo-OXAR xenograft, day 1 to day 21, loss attributed to the tumor) was “body weight loss”, the “apoptosis in tumors (TUNEL)” value ([2]; LoVo-parental tumors) was “induced significantly higher apoptosis” and the “health of mice after treatment” value ([2]; LoVo-parental xenograft, 100 mg/kg orally every three days) was “healthy”. The tumor growth ([2]; LoVo-parental xenograft, 100 mg/kg orally every three days, about three weeks) was “significantly reduced the tumor growth”, the “body weight of the mice” value ([2]; LoVo-parental xenograft, day 1 to day 21) was “remained constant” and the “Change in body weight” value ([3]; Group 3: 100 mg/kg, once a day) was 107 ± 5%. The “TGI (%)” value ([3]; Group 3: 100 mg/kg, once a day) was 51 ± 8%, the “Change in body weight” value ([3]; Group 4: 150 mg/kg, once a day) was 102 ± 3% and the “TGI (%)” value ([3]; Group 4: 150 mg/kg, once a day) was 51 ± 6%. For the same compound, the “Change in body weight” value [3, 6] was 103 ± 4%, the “TGI (%)” value [3, 6] was 88 ± 6% and the “toxicity to mice at a therapeutically effective dose” value ([3]; Groups 3-5) was “not toxic to mice”. For the same compound, the “body weight of the mice” value ([3]; Groups 3-5, FIG. 20B) was “remained constant”, the caspase-3 cleavage [4] was “activates caspase-3 cleavage” and the “expression of ER stress markers, including PERK, p-eIF2α, and ATF4” value [4] was “enhancing the expression of ER stress markers”. The “eIF2α levels in LoVo-OXAR cells” value ([5]; western blot) was “decreased”, the “phosphorylation of eIF2α in LoVo-OXAR cells” value ([5]; western blot) was “increased” and the caspase-3 cleavage ([5]; LoVo-OXAR cells) was “activates caspase-3 cleavage”. For the same compound, the “expression of ER stress markers, including PERK, p-eIF2α, and ATF4” value ([5]; LoVo-OXAR cells) was “enhancing the expression of ER stress markers”.
